Experimental data taken from PubChem BioAssay (NCI).
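Values below derive from 48-hour exposures of cells grown in 96-well plates, with endpoints linearly interpolated between the two concentrations bracketing the appropriate inhibition level. Definition used: TGI = concentration required for complete inhibition of growth.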

Assays:
Assay in all cases: growth of human tumour cells (NCI), 48 h
[1] = tested on: HOP-62 NSCLC
[2] = tested on: HCT-15 colon
[3] = tested on: UACC-257 melanoma
[4] = tested on: OVCAR-5 ovarian
[5] = tested on: LOX IMVI melanoma
[6] = tested on: 786-0 renal
[7] = tested on: ACHN renal
[8] = tested on: DU-145 prostate
[9] = tested on: HCC-2998 colon
[10] = tested on: A498 renal
[11] = tested on: OVCAR-4 ovarian
[12] = tested on: NCI-H522 lung
[13] = tested on: SN12C renal
[14] = tested on: MDA-MB-231 breast
[15] = tested on: T-47D breast
[16] = tested on: PC-3 prostate
[17] = tested on: HT29 colon
[18] = tested on: MDA-MB-435
[19] = tested on: SK-OV-3 ovarian
[20] = tested on: SK-MEL-28 melanoma
[21] = tested on: HOP-92 NSCLC
[22] = tested on: COLO 205 colon
[23] = tested on: NCI-H226 lung
[24] = tested on: UACC-62 melanoma
[25] = tested on: K-562 leukemia
[26] = tested on: CCRF-CEM leukemia
[27] = tested on: RXF 393 renal
[28] = tested on: SF-268 CNS
[29] = tested on: SF-295 CNS
[30] = tested on: A549 NSCLC
[31] = tested on: IGROV1 ovarian
[32] = tested on: NCI/ADR-RES ovarian
[33] = tested on: OVCAR-8 ovarian
[34] = tested on: SNB-19 CNS
[35] = tested on: UO-31 renal
[36] = tested on: NCI-H460 lung
[37] = tested on: SNB-75 CNS
[38] = tested on: M14 melanoma
[39] = tested on: HCT-116 colon
[40] = tested on: NCI-H23 lung
[41] = tested on: U251 CNS
[42] = tested on: HL-60(TB) leukemia
[43] = tested on: SK-MEL-2 melanoma
[44] = tested on: MDA-N
[45] = tested on: SF-539 CNS
[46] = tested on: EKVX NSCLC
[47] = tested on: CAKI-1 renal
[48] = tested on: RPMI-8226 leukemia
[49] = tested on: MALME-3M melanoma
[50] = tested on: SK-MEL-5 melanoma
[51] = tested on: SR leukemia
[52] = tested on: HS 578T breast
[53] = tested on: MOLT-4 leukemia
[54] = tested on: OVCAR-3 ovarian
[55] = tested on: SW-620 colon
[56] = tested on: KM12 colon
[57] = tested on: MCF7 breast
[58] = tested on: TK-10 renal

Measured: TGI

CCCCCC(/C=N/Nc1ccccc1)C(O)(C(F)(F)F)C(F)(F)F (centres undefined)
not listed: [56] | [57] | [58]
> 100 µM: all other assays above

CC[C@H]1C[C@@H](O)[C@@H]2[C@H](O)[C@H](O)CN2C1
not listed: [1] | [10] | [14] | [22] | [24] | [27] | [35] | [40] | [47] | [51]
> 100 µM: all other assays above

Cn1c(-c2ccc(/C=N/N=C/c3ccc(-c4c[n+]5ccccc5n4C)cc3)cc2)c[n+]2ccccc12
not listed: [5] | [8] | [10] | [21] | [23] | [24] | [27] | [40] | [43] | [47] | [49] | [54]
> 100 µM: all other assays above
